According to patent US3956274A, “New compound 6'-deoxy-'-substituted or unsubstituted amino-lividomycins and the production thereof” (Zaidan Hojin Biseibutsu Kagaku Kenkyu Kai, priority 1973, dated 1976):
Values after ≈ are worked out from the molar mass of the structure shown.

Columns and labels:
[1] = system: Bacillus subtilis NRRL B-558; experiment: MIC, standard serial dilution method; format: cell-based; settings: Bacillus subtilis, NRRLB558; B. subtilis NRRL B-558; nutrient agar, 37°C, 18 hours; read-out: Minimal inhibitory concentration
Procedure: (§1) The minimum inhibitory concentrations (mcg/ml) of 6'-amino-6'-deoxylividomycin B, 6'-deoxy-6'-methylaminolividomycin B and 6'-deoxy-6'-(2-hydroxyethylamino) lividomycin B against various microorganisms were determined according to a standard serial dilution method using nutrient agar incubation medium at 37°C, the estimation being effected after 18 hours incubation except for Mycobacterium smegmalis ATCC 607, in which the estimation being effected after 48 hours incubation. The minimum inhibitory concentrations (mcg/ml) of neomycin and lividomycin B were also determined in the same manner they also for comparison.

[2] = system: Escherichia coli K-12 J 5 R 11-2; experiment: MIC, standard serial dilution method; format: cell-based; settings: Escherichia coli, K12J5R112; E. coli K-12 J 5 R 11-2; nutrient agar, 37°C, 18 hours; read-out: Minimal inhibitory concentration
Procedure: as §1

[3] = system: Escherichia coli K-12 LA 290 R 56; experiment: MIC, standard serial dilution method; format: cell-based; settings: Escherichia coli, 18 h, read-out: Minimal inhibitory concentration
Procedure: as §1

[4] = system: Escherichia coli K-12 LA 290 R 64; experiment: MIC, standard serial dilution method; format: cell-based; settings: Escherichia coli; E. coli K-12 LA 290 R 64; nutrient agar, 37°C, 18 hours; read-out: Minimal inhibitory concentration
Procedure: as §1

[5] = system: Escherichia coli K-12 ML 1410 R 81; experiment: MIC, standard serial dilution method; format: cell-based; settings: Escherichia coli, 18 h, read-out: Minimal inhibitory concentration
Procedure: as §1

[6] = system: Escherichia coli K-12 ML 1410; experiment: MIC, standard serial dilution method; format: cell-based; settings: Escherichia coli, K12ML1410, 18 h, read-out: Minimal inhibitory concentration
Procedure: as §1

[7] = system: Escherichia coli K-12 ML 1630; experiment: MIC, standard serial dilution method; format: cell-based; settings: Escherichia coli, K12ML1630; E. coli K-12 ML 1630; nutrient agar, 37°C, 18 hours; read-out: Minimal inhibitory concentration
Procedure: as §1

[8] = system: Escherichia coli K-12 R-5; experiment: MIC, standard serial dilution method; format: cell-based; settings: Escherichia coli, K12R5; E. coli K-12 R-5; nutrient agar, 37°C, 18 hours; read-out: Minimal inhibitory concentration
Procedure: as §1

[9] = system: Escherichia coli K-12 W 677; experiment: MIC, standard serial dilution method; format: cell-based; settings: Escherichia coli, K12W677; E. coli K-12 W 677; nutrient agar, 37°C, 18 hours; read-out: Minimal inhibitory concentration
Procedure: as §1

Escherichia coli K-12 = experiment: MIC, standard serial dilution method; format: cell-based; settings: Escherichia coli, K12; E. coli K-12; nutrient agar, 37°C, 18 hours; read-out: Minimal inhibitory concentration
Procedure: as §1

Escherichia coli NIHJ = experiment: MIC, standard serial dilution method; format: cell-based; settings: Escherichia coli, 18 h, read-out: Minimal inhibitory concentration
Procedure: as §1

[10] = system: Klebsiella pneumoniae PCI 602; experiment: MIC, standard serial dilution method; format: cell-based; settings: Klebsiella pneumoniae, PCI602; K. pneumoniae PCI 602; nutrient agar, 37°C, 18 hours; read-out: Minimal inhibitory concentration
Procedure: as §1

[11] = system: Klebsiella pneumoniae type 22 No. 3038; experiment: MIC, standard serial dilution method; format: cell-based; settings: Klebsiella pneumoniae, TYPE22NO.3038, 18 h, read-out: Minimal inhibitory concentration
Procedure: as §1

[12] = system: Mycobacterium smegmatis ATCC 607; experiment: MIC, standard serial dilution method; format: cell-based; settings: Mycolicibacterium smegmatis, ATCC607, nutrient agar, 37°C, 48 hours, read-out: Minimal inhibitory concentration
Procedure: as §1

Proteus rettgeri GN 311 = experiment: MIC, standard serial dilution method; format: cell-based; settings: Providencia rettgeri, GN311, nutrient agar, 37°C, 18 hours, read-out: Minimal inhibitory concentration
Procedure: as §1

Proteus rettgeri GN 466 = experiment: MIC, standard serial dilution method; format: cell-based; settings: Providencia rettgeri, GN466; Proteus rettgeri GN 466; nutrient agar, 37°C, 18 hours; read-out: Minimal inhibitory concentration
Procedure: as §1

[13] = system: Pseudomonas aeruginosa 99; experiment: MIC, standard serial dilution method; format: cell-based; settings: Pseudomonas aeruginosa; P. aeruginosa 99; nutrient agar, 37°C, 18 hours; read-out: Minimal inhibitory concentration
Procedure: as §1

[14] = system: Pseudomonas aeruginosa A 3; experiment: MIC, standard serial dilution method; format: cell-based; settings: Pseudomonas aeruginosa, A3, 18 h, read-out: Minimal inhibitory concentration
Procedure: as §1

[15] = system: Pseudomonas aeruginosa No.12; experiment: MIC, standard serial dilution method; format: cell-based; settings: Pseudomonas aeruginosa; P. aeruginosa No.12; nutrient agar, 37°C, 18 hours; read-out: Minimal inhibitory concentration
Procedure: as §1

[16] = system: Pseudomonas aeruginosa TI-13-1; experiment: MIC, standard serial dilution method; format: cell-based; settings: Pseudomonas aeruginosa, TI131; P. aeruginosa TI-13-1; nutrient agar, 37°C, 18 hours; read-out: Minimal inhibitory concentration
Procedure: as §1

Salmonella typhosa T-63 = experiment: MIC, standard serial dilution method; format: cell-based; settings: Salmonella enterica, TYPHOSA, 18 h, read-out: Minimal inhibitory concentration
Procedure: as §1

Sarcina lutea PCI 1001 = experiment: MIC, standard serial dilution method; format: cell-based; settings: Micrococcus luteus, PCI1001, nutrient agar, 37°C, 18 hours, read-out: Minimal inhibitory concentration
Procedure: as §1

[17] = system: Staphylococcus aureus FDA 209 P; experiment: MIC, standard serial dilution method; format: cell-based; settings: Staphylococcus aureus, FDA209; S. aureus FDA 209 P; nutrient agar, 37°C, 18 hours; read-out: Minimal inhibitory concentration
Procedure: as §1

[18] = system: Escherichia coli K-12 JR 66/W 677; experiment: MIC, standard serial dilution method; format: cell-based; settings: Escherichia coli, 18 h, read-out: Minimal inhibitory concentration
Procedure: as §1
(§2) In the above table, the mark * denotes the strain is a drug-resistant
(§3) strain of patient-origin.

[19] = system: Escherichia coli K-12 LA 290 R 55; experiment: MIC, standard serial dilution method; format: cell-based; settings: Escherichia coli, 18 h, read-out: Minimal inhibitory concentration
Procedure: as §1, §2, §3

[20] = system: Escherichia coli K-12 ML 1629; experiment: MIC, standard serial dilution method; format: cell-based; settings: Escherichia coli, K12ML1629; E. coli K-12 ML 1629, drug-resistant strain of patient-origin; nutrient agar, 37°C, 18 hours; read-out: Minimal inhibitory concentration
Procedure: as §1, §2, §3

[21] = system: Pseudomonas aeruginosa GN 315; experiment: MIC, standard serial dilution method; format: cell-based; settings: Pseudomonas aeruginosa, GN315, 18 h, read-out: Minimal inhibitory concentration
Procedure: as §1, §2, §3

[22] = system: kanamycin-resistant strains; settings: in words; cited from earlier work

Compound: CNC[C@H]1O[C@H](O[C@H]2[C@H](O[C@@H]3O[C@H](CO)[C@@H](O[C@H]4O[C@@H](CN)[C@@H](O)[C@H](O)[C@H]4N)[C@H]3O)[C@@H](O)[C@H](N)C[C@@H]2N)[C@H](N)C[C@@H]1O [MALVB, 6'-deoxy-6'-methylaminolividomycin B]
- MIC [1]: < 0.2 µg/mL
- MIC [2]: 100 µg/mL (≈ 163 µM)
- MIC [3]: 1.56 µg/mL (≈ 2.55 µM)
- MIC [4]: 0.78 µg/mL (≈ 1.27 µM)
- MIC [5]: > 100 µg/mL
- MIC [6]: 3.12 µg/mL (≈ 5.09 µM)
- MIC [7]: > 100 µg/mL
- MIC [8]: 1.56 µg/mL (≈ 2.55 µM)
- MIC [9]: 0.78 µg/mL (≈ 1.27 µM)
- MIC (Escherichia coli K-12): 0.78 µg/mL (≈ 1.27 µM)
- MIC (Escherichia coli NIHJ): 3.12 µg/mL (≈ 5.09 µM)
- MIC [10]: 0.78 µg/mL (≈ 1.27 µM)
- MIC [11]: 1.56 µg/mL (≈ 2.55 µM)
- MIC [12]: < 0.2 µg/mL
- MIC (Proteus rettgeri GN 311): 25 µg/mL (≈ 40.8 µM)
- MIC (Proteus rettgeri GN 466): 12.5 µg/mL (≈ 20.4 µM)
- MIC [13]: 25 µg/mL (≈ 40.8 µM)
- MIC [14]: 3.12 µg/mL (≈ 5.09 µM)
- MIC [15]: 0.78 µg/mL (≈ 1.27 µM)
- MIC [16]: > 100 µg/mL
- MIC (Salmonella typhosa T-63): 0.78 µg/mL (≈ 1.27 µM)
- MIC (Sarcina lutea PCI 1001): 6.25 µg/mL (≈ 10.2 µM)
- MIC [17]: < 0.2 µg/mL
- MIC [18]: 3.12 µg/mL (≈ 5.09 µM)
- MIC [19]: 1.56 µg/mL (≈ 2.55 µM)
- MIC [20]: > 100 µg/mL
- MIC [21]: 3.12 µg/mL (≈ 5.09 µM)

Compound: NCC1CCC(N)C(OC2C(N)CC(N)C(OC3OC(CO)C(O)C(N)C3O)C2O)O1 (centres unmarked) [3', 4'-dideoxykanamycin B]
- activity against kanamycin-resistant strains [22]: actually effective

Compound: NC[C@@H]1CC[C@@H](N)[C@@H](O[C@H]2[C@H](O)[C@@H](O)[C@H](N)C[C@@H]2N)O1 [3', 4'-dideoxyneamine]
- activity against kanamycin-resistant strains [22]: actually effective
